These are literature values, as cited in the CATMoS acute toxicity set (Mansouri et al. 2021).

For orientation: LD50 means the dose expected to kill half of the subjects tested.

Values joined by “and” are separate entries in the source; they are usually repeats but may differ in a detail not shown here. Equal entries are not always repeated.

This data set is described as follows: rat acute oral toxicity. Conditions: in vivo.
Consider `CC12CCC(=O)CC1CCC1C2CCC2(C)C(C(=O)COC(=O)CCC(=O)O)CCC12` (configuration not stated), for which the LD50 is 700 mg/kg.

On to `COP(=S)(OC)SC(CC(=O)OC(C)C)C(=O)OC(C)C` (configuration not stated), for which the LD50 was 4000 mg/kg. Consider `c1ccc(N2CCOCC2)cc1`, for which the median lethal dose (LD50) is 930 mg/kg. `CC(C)C(=O)OC(=O)C(C)C`: the LD50 is 7700 mg/kg. Take `CN1CCN(C)CC1`: the LD50 is 1120 mg/kg. Take `CCN(CC)CCSC(=O)N(c1ccccc1)c1ccccc1`: the LD50 was 370 mg/kg. As for `FC(F)(F)c1nc2ccc(Cl)cc2[nH]1`, the LD50 was 6.82 mg/kg. On to `OCCSSc1c(Cl)c(Cl)c(Cl)c(Cl)c1Cl`, for which the LD50 is 2860 mg/kg. For the compound `C[Si](Cl)(Cl)CCCC#N`, the LD50 was 650 mg/kg. `CC(=O)N(C)N=O`: the LD50 was 20 mg/kg. Consider `CNC(=O)Oc1ccccc1C1OCCS1` (configuration not stated), for which the LD50 is 56 mg/kg.

For `CCOC(=O)N1CCC=C(C=NOC)C1`, the LD50 is 200 mg/kg. As to `CC1COC(C(Cl)CCl)O1` (configuration not stated), the LD50 was 620 mg/kg.

On to `CC(=O)NCCO`, for which the LD50 is 27000 mg/kg. Take `CCOP(=S)(OCC)SCSc1cc(Cl)ccc1Cl`: the LD50 was 44 mg/kg. In the case of `CCCC(=O)Nc1c(I)cc(I)c(CC(CC)C(=O)O)c1I` (configuration not stated), the LD50 was 6500 mg/kg. For `O=C1c2ccccc2C(=O)N1CC1CO1` (configuration not stated), the LD50 was 4700 mg/kg. `CCCCCCc1ccc(C)cc1O`: the LD50 is 2300 mg/kg. Consider `C=C(F)CO`, for which the LD50 is 130 mg/kg. For `CC(C)=CCN1CC[C@@]2(C)c3cc(O)ccc3C[C@@H]1[C@@H]2C` (racemic), the LD50 was 1110 mg/kg. As to `CCCCc1ccc(O)c(C(=O)Nc2cccc(C(F)(F)F)c2)c1`, the LD50 is 2500 mg/kg. On to `O=C(CCCN1CCC(O)(c2ccc(Cl)c(C(F)(F)F)c2)CC1)c1ccc(F)cc1`, for which the LD50 is 195 mg/kg. As to `C=CS(C)(=O)=O`, the LD50 was 570 mg/kg.

Regarding `CCOCc1cnc(C)nc1N`, the LD50 is 1450 mg/kg. For the compound `COc1cc2c(cc1OC)-c1c(OC)c(OC)cc3c1[C@H](C2)N(C)CC3`, the LD50 is 545 mg/kg. For `CCOC(=O)NS(=O)(=O)c1ccc(Cl)cc1`, the LD50 is 380 mg/kg.

For the compound `CCOC(=O)C(C(=O)Cc1c(C)n(C(=O)c2ccc(Cl)cc2)c2ccc(OC)cc12)C(=O)OCC`, the LD50 was 520 mg/kg.

Regarding `Nc1ncc(C=Cc2ccc([N+](=O)[O-])o2)nn1`, the LD50 is 250 mg/kg.

Take `CC(C)(C)C(=O)OCOC(=O)[C@@H]1N2C(=O)[C@@H](N=CN3CCCCCC3)[C@H]2SC1(C)C`: the LD50 is 9500 mg/kg.

Consider `O=[N+]([O-])c1ccc(C=Cc2ccc([N+](=O)[O-])cc2S(=O)(=O)O)c(S(=O)(=O)O)c1`, for which the LD50 was 12600 mg/kg.

Turning to `C=CCSCC=C`, the LD50 is 2980 mg/kg. On to `CNC(=O)ON=C1C2CCC(C2)C1(C)[N+](=O)[O-]` (configuration not stated), for which the LD50 is 24 mg/kg. As for `COc1ccccc1N1CCN(CCCc2ccc3c(c2)CCC(=O)N3)CC1`, the LD50 is 500 mg/kg. Take `Oc1c(Cl)c(Cl)cc2[nH]c(C(F)(F)F)nc12`: the LD50 was 52 mg/kg.

With `COc1ccc2c(c1)OC(C)(C)[C@H](c1ccccc1)[C@H]2c1ccc(OCCN)cc1`, the LD50 was 500 mg/kg. With `CC(C)=CC(NC(=O)C1=C([O-])c2sc(Cl)cc2S(=O)(=O)N1C)[n+]1ccccc1` (configuration not stated), the median lethal dose (LD50) is 10 mg/kg. Regarding `O=C(O)CCC(=O)OCC1COC(C(Cl)(Cl)Cl)O1` (configuration not stated), the LD50 was 3400 mg/kg.

Regarding `CCOP(=S)(OCC)Oc1cnn(C)c(=O)c1OC`, the LD50 is 2.5 mg/kg. Consider `O=C(Cn1c(=O)sc2ccc(Cl)cc21)N1CCNCC1`, for which the LD50 was 734 mg/kg. For `Cc1ccc(C=O)o1`, the LD50 is 2200 mg/kg. With `COC(=O)C1C2C=CC(C2)C1C(=O)OC` (configuration not stated), the LD50 was 1000 mg/kg. As for `ClCCN(Cc1ccccc1)Cc1ccccc1`, the LD50 is 2400 mg/kg. With `CCCCC(C=CC(C)=O)CC` (configuration not stated), the 50% lethal dose (LD50) is 8120 mg/kg. For `Clc1cc(Cl)c(-c2c(Cl)c(Cl)c(-c3c(Cl)cc(Cl)c(Cl)c3Cl)c(Cl)c2Cl)cc1Cl`, the LD50 is 16000 mg/kg. Consider `CCC1(C)C(=O)N(CC2CO2)C(=O)N1CC1CO1` (configuration not stated), for which the LD50 was 250 mg/kg. With `COC(=O)c1cccc(C)c1O`, the LD50 was 3840 mg/kg. Regarding `CC(C)NC(=O)OCC(O)C1COc2ccccc2O1` (configuration not stated), the LD50 was 1500 mg/kg. For `CN(C)C(=O)Cl`, the LD50 is 1000 mg/kg.

On to `Cc1ccc(S(=O)(=O)OCCCl)cc1`, for which the LD50 was 498 mg/kg. With `CCCCCCCC/C=C\CCCCCCCC(=O)NCC[N+]1(C)CCN=C1CCCCCCC/C=C\CCCCCCCC` (configuration not stated), the LD50 was 24400 mg/kg. Take `CC(=O)CCC(C)=O`: the LD50 was 2080 mg/kg. Consider `CS(=O)C(C)(C)C(=O)O` (configuration not stated), for which the LD50 was 7500 mg/kg.

For the compound `CC(Cl)(CCl)C(=O)O` (configuration not stated), the LD50 was 8000 mg/kg. In the case of `COc1ccc(C=CC(=O)OCCC(C)C)cc1`, the LD50 was 9600 mg/kg.

For `CC(C)(N)Cc1ccc(Cl)cc1`, the LD50 is 150 mg/kg and 250 mg/kg. As to `CCOC(C1=NCC(CC)(CC)CN1)c1ccccc1` (configuration not stated), the LD50 is 250 mg/kg. Take `O=C1c2ccccc2CCC1CNCCc1ccc(O)cc1` (configuration not stated): the LD50 is 650 mg/kg.

Regarding `O=[N+]([O-])c1cnc(Cl)c([N+](=O)[O-])c1`, the LD50 was 50 mg/kg. As for `Cc1cc(C(C)(C)C)c(O)c(C)c1CC1=NCCN1`, the LD50 was 0.8 mg/kg and 0.68 mg/kg. As to `O=C(O)Cc1ccc2c(c1)C(=O)c1ccccc1CO2`, the LD50 was 143 mg/kg.

For the compound `Nc1cc(Cl)c([N+](=O)[O-])cc1Cl`, the LD50 is 2820 mg/kg. Turning to `O=C(C=Cc1ccccc1)NO`, the LD50 is 2140 mg/kg.
